{"source": "patent US20070249633A1", "about": "“1,2,4-Triazolo[1,5a] Pyrimidines and Use Thereof for Controlling Plant-Pathogenic Fungi” (priority 2004, published 2007)", "key": {"Botrytis cinerea": {"tested_on": "Botrytis cinerea", "assay": "Activity against gray mold on bell pepper leaves caused by Botrytis cinerea (protective spray, seedlings)", "format": "in vivo", "conditions": "250 ppm active compound; bell pepper seedlings Neusiedler Ideal Elite; inoculated next day; assessed after 5 days; untreated plants 90% infected", "procedure": "The active compounds were prepared as a stock solution comprising 0.25% by weight of active compound in acetone or dimethyl sulfoxide (DMSO). 1% by weight of the emulsifier Uniperol® EL (wetting agent having emulsifying and dispersing action based on ethoxylated alkylphenols) was added to this solution, and the mixture was diluted with water to the desired concentration.\nBell pepper seedlings of the cultivar “Neusiedler Ideal Elite” were, after 2-3 leaves were well developed, sprayed to runoff point with an aqueous suspension having the concentration of active compound stated below. The next day, the treated plants were inoculated with a spore suspension of Botrytis cinerea which contained 1.7×10^6 spores/ml in a 2% strength aqueous biomalt solution. The test plants were then placed in a climatized chamber at 22-24° C. and high atmospheric humidity. After 5 days, the extent of the fungal infection on the leaves could be determined visually in %."}, "Alternaria solani": {"tested_on": "Alternaria solani", "assay": "Activity against early blight of tomato caused by Alternaria solani (protective spray, potted plants)", "format": "in vivo", "conditions": "250 ppm active compound; tomato cultivar St. Pierre beef tomato; infected next day; assessed after 5 days; untreated plants 80% infected", "procedure": "The active compounds were prepared as a stock solution comprising 0.25% by weight of active compound in acetone or dimethyl sulfoxide (DMSO). 1% by weight of the emulsifier Uniperol® EL (wetting agent having emulsifying and dispersing action based on ethoxylated alkylphenols) was added to this solution, and the mixture was diluted with water to the desired concentration. Leaves of potted plants of the cultivar “St. Pierre beef tomato” were sprayed to run off point with an aqueous suspension having the concentration of active compounds stated below. The next day, the leaves were infected with an aqueous zoospore suspension of Alternaria solani in 2% biomalt solution having a density of 0.17×10^6 spores/ml. The plants were then placed in a water-vapor-saturated chamber at temperatures of between 20 and 22° C. After 5 days, the infection on the leaves of the untreated, but infected control plants had developed to such an extent that the infection could be determined visually in %."}}}
{"compound": "CCC(C)Cc1c(-c2ccc([N+](=O)[O-])cc2Cl)c(C)nc2ncnn12", "note": "(centres unmarked) [example 1, 5-methyl-6-(2chloro-4-nitrophenyl)-7-(2-methylbutyl)-1,2,4-triazolo[1,5-a]pyrimidine]", "values": [{"measurement": "extent of the fungal infection on the leaves determined visually in %", "setting": "Botrytis cinerea", "result": "no infection"}, {"measurement": "infection on the leaves determined visually in %", "setting": "Alternaria solani", "result": "less than 5%"}]}
